Test results as given in patent publication US20140171436A1, “TREATMENT OF ANTIFOLATE NEUROTOXICITY” (Syntrix Biosystems, Inc., priority 2003, published 2014).
“And” between values parts separate entries of the source, which are not always exact repeats. Equal values may be shown once. Read-outs that look alike come from different tables or passages of the source.

Legend:
[1] = target: NMDA receptor; conditions: read-out: Ki NMDAR; cited from earlier work
[2] = target: sigma-2 (Homo sapiens, UniProt Q5BJF2); conditions: read-out: Ki sigma-2; cited from earlier work
Sequence of sigma-2 (Q5BJF2 whole entry): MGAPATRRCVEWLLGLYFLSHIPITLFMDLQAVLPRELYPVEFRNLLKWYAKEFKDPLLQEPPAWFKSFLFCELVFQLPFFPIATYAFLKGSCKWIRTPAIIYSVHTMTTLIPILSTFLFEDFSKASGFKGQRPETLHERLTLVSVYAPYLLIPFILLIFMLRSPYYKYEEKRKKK

[3] = target: sigma-1 receptor (Homo sapiens, UniProt Q99720); conditions: cited from earlier work
Sequence of sigma-1 receptor (Q99720 whole entry, species assumed): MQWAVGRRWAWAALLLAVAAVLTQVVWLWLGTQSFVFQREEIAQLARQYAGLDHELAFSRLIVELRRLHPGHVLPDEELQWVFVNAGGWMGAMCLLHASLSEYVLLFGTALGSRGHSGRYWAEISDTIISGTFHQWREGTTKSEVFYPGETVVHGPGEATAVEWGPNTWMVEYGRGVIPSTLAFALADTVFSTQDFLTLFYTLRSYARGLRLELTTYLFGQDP

[4] = target: sigma-1 (Cavia porcellus, UniProt Q60492); conditions: Table IV, reference 8; read-out: sigma-1 affinity IC50; cited from earlier work
Sequence of sigma-1 (Q60492 whole entry): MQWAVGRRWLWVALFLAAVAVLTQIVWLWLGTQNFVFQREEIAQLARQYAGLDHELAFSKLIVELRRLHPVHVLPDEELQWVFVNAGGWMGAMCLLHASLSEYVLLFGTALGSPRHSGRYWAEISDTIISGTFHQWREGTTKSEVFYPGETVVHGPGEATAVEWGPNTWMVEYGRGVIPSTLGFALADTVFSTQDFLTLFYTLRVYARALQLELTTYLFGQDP

[5] = frequent and massive doses as large as 3300 mg/day; cited from earlier work
[6] = in vivo; cited from earlier work
[7] = cited from earlier work
[8] = test system: patients with AF-NT (MTX neurotoxicity); experiment: Patients with AF-NT treated with oral dextromethorphan; assay type: in vivo, human
Excerpt: For example, the intensity, duration and frequency of neurological symptoms such as seizure, paralysis, nystagmus, ataxia, dysarthria, aphasia cranial nerve palsy, asthenia can be readily determined by clinical evaluation. A variety of validated grading methods are available to assess such symptoms. As used herein, useful strategies for grading such objective AF-NT symptoms include time to initial response, time to resolution of all symptoms, and a grade (1-3) of the rate of symptom resolution for the majority of all AF-NT symptoms. In this grading system, a grade 1 is where symptoms resolve gradually or linearly over an extended period exceeding 96 hours, a grade 2 is where the majority of symptoms resolve in 25 to 96 hours), and a grade 3 is where the majority of symptoms resolve in 24 hours or less: the greater the grade, the greater degree of symptom improvement. Physical deficits that can be objectively assessed generally appear in patients with moderate- to high-dose exposure to antifolate.
The mean grade of symptom resolution for untreated patients was 1.4±0.2 (mean±SEM), while the mean grade of symptom resolution for treated patients was 2.3±0.2 (mean±SEM).

[9] = Table IV, undefined agonist/antagonist activity, read-out: sigma-1 affinity
[10] = delayed syndrome, moderate dose
[11] = Example 1: NHL, 32 M, MTX 12 mg IT, oral DM 1 mg/kg once
[12] = Example 2: ALL, 15 M, MTX 12 mg IT and 100 mg/m^2 IV, oral DM 2 mg/kg × 1
[13] = Example 3: ALL, 19 M, MTX 7.5 mg IO and 1 g/m^2 IV, oral DM 1 mg/kg TID
[14] = Example 4: OS, 13 M, MTX 12 g/m^2 IV, oral DM 1 mg/kg TID
[15] = Example 4, DM 1 mg/kg three times on a single day
[16] = Example 5: OS, 16 M, MTX 12 g/m^2 IV, oral DM 1 mg/kg × 1
[17] = Example 6: ALL, 18 F, MTX 12 mg IT, oral DM 1 mg/kg BID
[18] = Example 7: ALL, 6 F, MTX 12 mg IT, oral DM 1 mg/kg BID × 3
[19] = Example 8: ALL, 9 F, MTX 12 mg IT, oral DM 1 mg/kg BID
[20] = Example 9: ALL, 14 M, IV and IT MTX, oral DM 1 mg/kg TID
[21] = Example 10: ALL, 8 F, MTX 12 mg IT, oral DM 1 mg/kg BID
[22] = Example 11: ALL, 15 F, MTX 12 mg IT, oral DM 1 mg/kg BID
[23] = Example 12: ALL, 5 M, IV and IT MTX, oral DM 1 mg/kg TID
[24] = Example 13: ALL, 13 M, MTX 12 mg IT, oral DM 1 mg/kg BID
[25] = Example 14: ALL, 14 F, MTX 12 mg IT, oral DM 1 mg/kg BID
[26] = Example 15: ALL, 13 F, MTX 12 mg IT, oral DM 1.5 mg/kg BID × 6
[27] = Example 16: ALL, 6 M, MTX 12 mg IT, oral DM 1 mg/kg BID × 5

CN1CC[C@]23CCCC[C@H]2[C@H]1Cc1ccc(OCC2CC2)cc13 [CPK-6, 3-cyclopropylmethoxy-17-methylmorphinan]
Ki [1]: 18000 nM
Ki [2]: 15000 nM
Ki ([3]; read-out: sigma-1 affinity Ki): 148 nM

Cc1ccc2c(c1)[C@@]13CCCC[C@H]1[C@@H](C2)N(C)CC3 [Dimemorfan, (+)-3-methyl-N-methylmorphinan]
Ki [1]: 17000 nM
Ki [2]: 4000 to 11000 nM
Ki ([3]; read-out: sigma-1 affinity Ki): 151 nM

C=CCOc1ccc2c(c1)[C@@]13CCCC[C@H]1[C@@H](C2)N(C)CC3 [CPK-5, 3-allyloxy-17-methylmorphinan]
Ki [1]: 18000 nM
Ki [2]: 14000 nM
Ki ([3]; read-out: sigma-1 affinity Ki): 156 nM

CCN(CC)CCOCCOC(=O)C1(c2ccccc2)CCCC1 [Carbetapentane]
Ki [3, 9]: < 50 nM
IC50 [4]: 9 nM

C=CCN1CCC2(C)c3cc(O)ccc3CC1C2C (single isomer, unassigned; (+)) [(+)-N-allyl-normetazocine]
Ki [1]: 600 nM
Ki [2]: 14000 nM
Ki ([3]; Table II, sigma-1 agonists, read-out: sigma-1 affinity): < 50 nM
Ki ([3]; read-out: sigma-1 affinity Ki): 58 nM

CCN(CC)CCOC(=O)C1(c2ccccc2)CCCC1 [Caramiphen]
IC50 [4]: 25 nM

CN(C)CCOCCOC(=O)N1c2ccccc2Sc2ccccc21 [Dimethoxanate]
Ki [3, 9]: < 50 nM
IC50 [4]: 41 nM

CN1CC[C@@]23CCCC[C@@H]2[C@@H]1Cc1ccc(O)cc13 [dextrorphan]
side-effects [5]: unacceptable PCP-like side-effects
Ki [2]: 4000 to 11000 nM
Ki ([3]; read-out: sigma-1 affinity Ki): 144 nM and 140 nM

CC12CC3CC(C)(C1)CC(N)(C3)C2 [memantine]
Ki [1]: 500 nM
Ki ([3]; read-out: sigma-1 affinity Ki): 2600 nM
mean CSF/serum ratio [6]: 0.52

O=C(OCCOCCN1CCCCC1)N1c2ccccc2Sc2cccnc21 [Pipazethate]
Ki [3, 9]: < 50 nM
IC50 [4]: 190 nM

CN(Cc1cnc2nc(N)nc(N)c2n1)c1ccc(C(=O)N[C@@H](CCC(=O)O)C(=O)O)cc1 [MTX, Methotrexate]
Incidence ([7]; acute syndrome, >1 g/m^2, IT): 5-40%.
Incidence ([7]; delayed (chronic) syndrome, low dose <10 mg/m^2 oral): Low - 56%.
Incidence ([7]; delayed syndrome, high dose 7-20 g/m^2 every 1-2 weeks): High - 2.3%.
Typical duration of symptoms, insidiously progressive ([7]; delayed syndrome, high dose): High - Insidiously progressive over 3-6 months.
Incidence ([7]; delayed syndrome, moderate dose 10-1000 mg/m^2, depending on net dose): Moderate - 1.9-19.5% depending on net dose.
Radiographic findings: leukoencephalopathy ([7]; delayed syndrome, moderate dose, depending on dose): Moderate - Leukoencephalopathy in 15-75%,
Permanent sequelae: asymptomatic [7, 10]: asymptomatic in 63-74%.
Permanent sequelae: neuropsychologic impairment [7, 10]: neuropsychologic impairment 15%,
Permanent sequelae: recurrent seizures [7, 10]: Moderate - Recurrent seizures 7-26%,
Typical duration of symptoms, mean ([7]; subacute syndrome): Mean 38 hours.
mean duration of symptoms ([7]; subacute syndrome): approximately 40 hours

COc1ccc2c(c1)[C@@]13CCCC[C@H]1[C@@H](C2)N(C)CC3 [dextromethorphan, (+)-3-methoxy-N-methylmorphinan]
side-effects [5]: unacceptable PCP-like side-effects
Ki [2]: 4000 to 11000 nM
Kd ([3]; read-out: sigma-1 affinity Kd): 20 nM
Ki ([3]; read-out: sigma-1 affinity Ki): 205 nM and 210 nM
Grade (1-3) of symptom resolution [8, 11]: 3 (3 = rapid (majority of symptoms resolved in 24 hours or less))
Time to initial response [8, 11]: 3 h
Time to resolution of all symptoms [8, 11]: 24 h
Grade (1-3) of symptom resolution [8, 12]: 3 (3 = rapid (majority of symptoms resolved in 24 hours or less))
Time to initial response [8, 12]: 0.50 h
Time to resolution of all symptoms [8, 12]: 6 h
duration of symptoms ([8]; Example 3, text, DM 1 mg/kg three times on a single day): 10 days
Grade (1-3) of symptom resolution [8, 13]: 1 (1 = gradual (symptoms resolved gradually or linearly over an extended period exceeding 96 hours))
Time to initial response [8, 13]: 3 h
Time to resolution of all symptoms [8, 13]: 240 h
Grade (1-3) of symptom resolution [8, 14]: 2 (2 = moderate (majority of symptoms resolved in 25 to 96 hours))
Time to initial response [8, 14]: 0.75 h
Time to resolution of all symptoms [8, 14]: 72 h
duration of symptoms [8, 15]: 3 days
time until symptoms began to improve [8, 15]: 45 min
duration of symptoms ([8]; Example 5, text, DM 1 mg/kg once): 0.0208 days
Grade (1-3) of symptom resolution [8, 16]: 3 (3 = rapid (majority of symptoms resolved in 24 hours or less))
Time to initial response [8, 16]: 0.50 h
Time to resolution of all symptoms [8, 16]: 0.50 h
persistent confusion ([8]; Example 6, text, DM 1 mg/kg po BID): 8 days
Grade (1-3) of symptom resolution [8, 17]: 2 (2 = moderate (majority of symptoms resolved in 25 to 96 hours))
Time to initial response [8, 17]: 24 h
Time to resolution of all symptoms [8, 17]: 192 h
Grade (1-3) of symptom resolution [8, 18]: 3 (3 = rapid (majority of symptoms resolved in 24 hours or less))
Time to initial response [8, 18]: 4 h
Grade (1-3) of symptom resolution [8, 19]: 2 (2 = moderate (majority of symptoms resolved in 25 to 96 hours))
Time to initial response [8, 19]: 2 h
Grade (1-3) of symptom resolution [8, 20]: 3 (3 = rapid (majority of symptoms resolved in 24 hours or less))
Time to initial response [8, 20]: 2 h
Time to resolution of all symptoms [8, 20]: 3 h
time to complete resolution ([8]; Example 10, text, DM 1 mg/kg po BID for 24 hours): 5 days
Grade (1-3) of symptom resolution [8, 21]: 2 (2 = moderate (majority of symptoms resolved in 25 to 96 hours))
Time to resolution of all symptoms [8, 21]: 120 h
time until back to baseline ([8]; Example 11, text, DM 1 mg/kg po BID): 8 days
Grade (1-3) of symptom resolution [8, 22]: 3 (3 = rapid (majority of symptoms resolved in 24 hours or less))
Time to initial response [8, 22]: 24 h
Time to resolution of all symptoms [8, 22]: 192 h
Grade (1-3) of symptom resolution [8, 23]: 3 (3 = rapid (majority of symptoms resolved in 24 hours or less))
Time to initial response [8, 23]: 24 h
Time to resolution of all symptoms [8, 23]: 24 h
Grade (1-3) of symptom resolution [8, 24]: 3 (3 = rapid (majority of symptoms resolved in 24 hours or less))
Time to initial response [8, 24]: 24 h
Time to resolution of all symptoms [8, 24]: 24 h
time until able to speak ([8]; Example 14, text, DM 1 mg po BID by nasogastric tube): 9 days
Grade (1-3) of symptom resolution [8, 25]: 1 (1 = gradual (symptoms resolved gradually or linearly over an extended period exceeding 96 hours))
Time to initial response [8, 25]: 216 h
Time to resolution of all symptoms [8, 25]: >1000 h
Grade (1-3) of symptom resolution [8, 26]: 1 (1 = gradual (symptoms resolved gradually or linearly over an extended period exceeding 96 hours))
Time to resolution of all symptoms [8, 26]: >1000 h
time to complete resolution ([8]; Example 16, text, DM 1 mg/kg po BID for 5 days): about 5 days
Grade (1-3) of symptom resolution [8, 27]: 1 (1 = gradual (symptoms resolved gradually or linearly over an extended period exceeding 96 hours)) and 2 (2 = moderate (majority of symptoms resolved in 25 to 96 hours))
Time to initial response [8, 27]: 24 to 48 h and 24 h
Time to resolution of all symptoms [8, 27]: 120 h
mean grade of symptom resolution (mean±SEM) ([8]; treated patients, Examples 1-16, P 0.0042 vs untreated, unpaired t test): 2.3±0.2
